From BindingDB's records for doi:10.7270/Q2416VG3 (Nmmlsc, 2010)

The compounds below were run against T1, Regulator of G-protein signaling 7 (Homo sapiens, UniProt P49802) (assay: small molecules altering RGS7 interaction with Galphao – biochemical, multiplexed bead flow cytometry, SAR compounds, SAR follow-up (AID 2296)). Conditions: not given.
T1 sequence (P49802 whole entry): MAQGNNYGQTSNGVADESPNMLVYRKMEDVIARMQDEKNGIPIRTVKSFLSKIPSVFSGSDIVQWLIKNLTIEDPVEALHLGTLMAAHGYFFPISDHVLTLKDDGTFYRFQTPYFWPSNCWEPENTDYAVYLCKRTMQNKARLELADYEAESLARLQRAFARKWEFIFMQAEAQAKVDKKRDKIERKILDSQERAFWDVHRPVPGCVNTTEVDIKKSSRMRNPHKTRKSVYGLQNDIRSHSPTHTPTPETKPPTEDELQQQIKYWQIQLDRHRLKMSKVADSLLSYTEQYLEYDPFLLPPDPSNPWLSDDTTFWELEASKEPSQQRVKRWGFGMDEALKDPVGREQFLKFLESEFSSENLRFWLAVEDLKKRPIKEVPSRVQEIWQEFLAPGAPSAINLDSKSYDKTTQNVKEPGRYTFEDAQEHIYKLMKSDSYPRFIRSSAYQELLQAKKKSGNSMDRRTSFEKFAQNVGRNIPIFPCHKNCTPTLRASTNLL

EC50	Compound
87 nM	CN1CCN(C2=C(Cl)C(=O)C(c3cnc(N4CCCCC4)s3)=C(Cl)C2=O)CC1
449 nM	CCN=c1scc(C)n1N=Cc1ccc(O)c(O)c1O
381 nM	CCN(CC)S(=O)(=O)c1cccc(C(=O)NN=Cc2ccc(O)c(O)c2O)c1
2200 nM	Cc1[nH]n(-c2ccccc2)c(=S)c1C=NCCCN=Cc1c(C)[nH]n(-c2ccccc2)c1=S
> 30000 nM	Cc1cccc(N2CCN(C(=O)COc3nsc4nc(C)cc(C)c34)CC2C)c1 (stereo unspecified)
> 30000 nM	Cc1cccc(N2CCN(C(=O)Cn3ccc4nc(C)cc(C)c4c3=O)CC2C)c1 (stereo unspecified) [2,4-dimethyl-6-[2-[3-methyl-4-(3-methylphenyl)piperazin-1-yl]-2-oxidanylidene-ethyl]-1,6-naphthyridin-5-one]
67 nM	Cc1cc(C)c2c(=O)n(CC(=O)N3CCN(c4ccccc4)CC3)ccc2n1 [2,4-dimethyl-6-[2-oxidanylidene-2-(4-phenylpiperazin-1-yl)ethyl]-1,6-naphthyridin-5-one]
> 30000 nM	Cc1cc(C)c2c(n1)CCN(CC(=O)N1CCN(c3ccccc3)CC1)C2=O [2,4-dimethyl-6-[2-oxidanylidene-2-(4-phenylpiperazin-1-yl)ethyl]-7,8-dihydro-1,6-naphthyridin-5-one]
> 30000 nM	O=c1c2ccccc2sn1-c1ccc(S(=O)(=O)N2CCCC2)cc1 [2-(4-pyrrolidin-1-ylsulfonylphenyl)-1,2-benzothiazol-3-one]
> 30000 nM	Cc1cccc(N2CCN(C(=O)Cn3sc4nc(C)cc(C)c4c3=O)CC2C)c1 (stereo unspecified) [2-[2-keto-2-[3-methyl-4-(m-tolyl)piperazino]ethyl]-4,6-dimethyl-isothiazolo[5,4-b]pyridin-3-one]
> 30000 nM	Cc1cccc(N2CCN(C(=O)COc3noc4nc(C)cc(C)c34)CC2C)c1 (stereo unspecified) [2-[(4,6-dimethyl-[1,2]oxazolo[5,4-b]pyridin-3-yl)oxy]-1-[3-methyl-4-(3-methylphenyl)piperazin-1-yl]ethanone]
> 30000 nM	O=c1c2ccccc2sn1-c1ccccc1 [2-phenyl-1,2-benzothiazol-3-one]
> 30000 nM	CC(NC(=O)c1sc2cc([N+](=O)[O-])ccc2c1Cl)C(C)(C)C (stereo unspecified) [3-chloranyl-N-(3,3-dimethylbutan-2-yl)-6-nitro-1-benzothiophene-2-carboxamide]
> 30000 nM	O=C(NCCCN1CCOCC1)c1sc2cc([N+](=O)[O-])ccc2c1Cl [3-chloranyl-N-(3-morpholin-4-ylpropyl)-6-nitro-1-benzothiophene-2-carboxamide]
> 30000 nM	COC(=O)CCC(=O)Nc1sc(C)c(C)c1C(N)=O [4-[(3-carbamoyl-4,5-dimethyl-2-thienyl)amino]-4-keto-butyric acid methyl ester]
> 30000 nM	CCN(CC)S(=O)(=O)c1cccc(-c2n[nH]c(=S)n2N=Cc2ccc(C(=O)OC)cc2)c1 [4-[(E)-[3-[3-(diethylsulfamoyl)phenyl]-5-thioxo-1H-1,2,4-triazol-4-yl]iminomethyl]benzoic acid methyl ester]
141 nM	NS(=O)(=O)c1ccc(N=NCc2ccc(O)c(O)c2O)c([N+](=O)[O-])c1 [4-[[(E)-(2,3-dihydroxy-4-oxo-1-cyclohexa-2,5-dienylidene)methyl]hydrazo]-3-nitrobenzenesulfonamide]
> 30000 nM	CCOC(=O)c1sc(NC(=O)CSc2nnc(Cc3ccccc3)o2)c(C#N)c1C [4-cyano-3-methyl-5-[[1-oxo-2-[[5-(phenylmethyl)-1,3,4-oxadiazol-2-yl]thio]ethyl]amino]-2-thiophenecarboxylic acid ethyl ester]
244 nM	CN=c1scc(C)n1N=Cc1ccc(O)c(O)c1O [(4E)-2,3-dihydroxy-4-[[(4-methyl-2-methylimino-1,3-thiazol-3-yl)amino]methylidene]cyclohexa-2,5-dien-1-one]
> 30000 nM	Cc1[nH]n(-c2ccccc2)c(=S)c1/C=N/c1cccc([N+](=O)[O-])c1 [(4E)-5-methyl-4-[(3-nitroanilino)methylene]-2-phenyl-2-pyrazoline-3-thione]
> 30000 nM	Cc1cccc(N2CCN(C(=O)CN3CCc4nc(C)cc(C)c4C3=O)CC2C)c1 (stereo unspecified) [KUC103675N]
> 30000 nM	CC(=O)OCCCNc1cc(Sc2nc3ccccc3s2)c2nonc2c1[N+](=O)[O-] [MLS000521052]
> 30000 nM	Cc1cc(Cl)ccc1/N=c1/ssnc1Cl [MLS000539990]
158 nM	O=C1C(Cl)=C(N2CCCCC2)C(=O)C(Cl)=C1c1cnc(N2CCCCC2)s1 [MLS000550549]
4410 nM	CCC(=O)NC(c1ccc(C)cc1)c1cc([N+](=O)[O-])c2cccnc2c1O (stereo unspecified) [MLS000553854]
356 nM	COc1ccc(C2=CC(=O)C=CC2=O)cc1 [MLS001029846]
> 30000 nM	O=C(COc1ccccc1C(=O)NN=Cc1ccc(O)c(O)c1)NN=Cc1ccc(O)c(O)c1 [N''-[(Z)-(3-hydroxy-4-oxo-1-cyclohexa-2,5-dienylidene)methyl]-2-[2-[[(Z)-(3-hydroxy-4-oxo-1-cyclohexa-2,5-dienylidene)methyl]hydrazo]-2-oxoethoxy]benzohydrazide]
1870 nM	CC1(C)OC(=O)C(=Cc2ccc(-c3ccc(S(N)(=O)=O)cc3)o2)C(=O)O1 [SMR000273939]
421 nM	O=C(Cc1csc(N2CCOCC2)n1)NN=Cc1ccc(O)c(O)c1O [SMR000369439]
146 nM	Nc1c(C(=O)NCC2CCCO2)sc2nc3c(c(-c4ccco4)c12)CC/C3=C/c1ccco1 (stereo unspecified) [UNM-0000305796]

Same assay, conditions: inactive by the depositor's call

EC50	Compound
3570 nM	CCOc1ccccc1-c1c2cc(O)c(=O)cc-2oc2cc(O)c(O)cc12 [MLS000578271]
